Results taken from ChEMBL document CHEMBL1201862, “PubChem BioAssay data set” (2004).
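Five concentrations, 48 hours, 96-well plates. Here, GI50 denotes the concentration required for 50% inhibition of growth.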 The source made the active and inactive calls. Rule as the data show it: active = GI50 up to about 1.1 µM and inactive = higher. Square brackets hold non-standard residues; d marks the D form. Peptide text beside a SMILES is read from it. * marks the point of attachment. Bn2Val = CC(C)[C@@H](C(=O)*)N(Cc1ccccc1)Cc1ccccc1; NH(3,4-diMeO-benzyl) = COc1ccc(CN*)cc1OC; NMeV = CN[C@H](C(=O)O)C(C)C; dNMeA = CN[C@H](C)C(=O)O

Assays:
Test in all cases: DTP human tumour cell line panel, 48 h
NCI/ADR-RES = system: NCI/ADR-RES
TK-10 = system: TK-10
SW-620 = system: SW-620
Hs-578T = system: Hs-578T
NCI-H23 = system: NCI-H23
786-0 = system: 786-0
SNB-19 = system: SNB-19
HCT-15 = system: HCT-15
SF-268 = system: SF-268
KM12 = system: KM12
HOP-62 = system: HOP-62
UO-31 = system: UO-31
Malme-3M = system: Malme-3M
DU-145 = system: DU-145
MOLT-4 = system: MOLT-4
CCRF-CEM = system: CCRF-CEM
MCF7 = system: MCF7
NCI-H522 = system: NCI-H522
PC-3 = system: PC-3
UACC-62 = system: UACC-62

| SMILES | GI50 (NCI/ADR-RES) | GI50 (TK-10) | GI50 (SW-620) | GI50 (Hs-578T) | GI50 (NCI-H23) | GI50 (786-0) | GI50 (SNB-19) | GI50 (HCT-15) | GI50 (SF-268) | GI50 (KM12) | GI50 (HOP-62) | GI50 (UO-31) | GI50 (Malme-3M) | GI50 (DU-145) | GI50 (MOLT-4) | GI50 (CCRF-CEM) | GI50 (MCF7) | GI50 (NCI-H522) | GI50 (PC-3) | GI50 (UACC-62) |
| --- | --- | --- | --- | --- | --- | --- | --- | --- | --- | --- | --- | --- | --- | --- | --- | --- | --- | --- | --- | --- |
| COc1ccc(CCN2COc3ccc4ccc(=O)oc4c3C2)cc1OC | > 100 µM (inactive) | > 100 µM (inactive) | 24.2 µM (inactive) | > 100 µM (inactive) | > 100 µM (inactive) | > 100 µM (inactive) | > 100 µM (inactive) | > 100 µM | 60.4 µM (inactive) | > 100 µM (inactive) | > 100 µM (inactive) | > 100 µM (inactive) | > 100 µM (inactive) | > 100 µM (inactive) | > 100 µM (inactive) | 23.7 µM (inactive) | 89.5 µM (inactive) | > 100 µM (inactive) | > 100 µM (inactive) | 50.2 µM (inactive) |
| CC(=O)OCC1OC(n2c3c(c(-c4ccco4)c(C#N)c2=S)CCCC3)C(OC(C)=O)C(OC(C)=O)C1OC(C)=O (stereo not given) | 17.1 µM (inactive) | 15.7 µM (inactive) | > 100 µM (inactive) | 29.4 µM (inactive) | > 20.2 µM (inactive) | 25.1 µM (inactive) | 15.6 µM (inactive) | > 31.6 µM | 13.5 µM (inactive) | > 31.6 µM (inactive) | 13.3 µM (inactive) | 22.6 µM (inactive) | > 31.6 µM (inactive) | > 31.6 µM (inactive) | > 31.6 µM (inactive) | > 10 µM (inactive) | > 76.2 µM (inactive) | 16.3 µM (inactive) | > 10 µM (inactive) | > 10 µM (inactive) |
| CCOC(=O)/C=C(/C(=O)OCC)n1ccc(=O)n(/C(=C/C(=O)OCC)C(=O)OCC)c1=O | 22.9 µM (inactive) | 7.08 µM (inactive) | 2.04 µM (inactive) | 20.9 µM (inactive) | 16 µM (inactive) | 2.4 µM (inactive) | 20.3 µM (inactive) | 2.19 µM | 18.6 µM (inactive) | 17.2 µM (inactive) | 25.9 µM (inactive) | 15.5 µM (inactive) | 2.79 µM (inactive) | 18.6 µM (inactive) | 1.76 µM (inactive) | 1.37 µM (inactive) | 6.4 µM (inactive) | 1.61 µM (inactive) | 15 µM (inactive) | 14.8 µM (inactive) |
| O=C1C(c2c(O)[nH]c3ccc(Br)cc23)=Nc2ccc(Br)cc21 | 34 µM (inactive) | 72.9 µM (inactive) | 74.5 µM (inactive) | 51.4 µM (inactive) | 27.5 µM (inactive) | 24 µM (inactive) | 30.1 µM (inactive) | 43 µM | 33 µM (inactive) | 44.2 µM (inactive) | 42.1 µM (inactive) | > 100 µM (inactive) | 46 µM (inactive) | 25.4 µM (inactive) | 45 µM (inactive) | 63.5 µM (inactive) | 13.6 µM (inactive) | 83 µM (inactive) | 51.3 µM (inactive) | > 100 µM (inactive) |
| O=C(CN(c1ccc(S(=O)(=O)O)cc1)c1ccc(S(=O)(=O)O)cc1)Nn1cnc2ccc(S(=O)(=O)N(c3ccc(S(=O)(=O)O)cc3)c3ccc(S(=O)(=O)O)cc3)cc2c1=O | > 100 µM (inactive) | > 100 µM (inactive) | > 100 µM (inactive) | > 100 µM (inactive) | > 100 µM (inactive) | > 100 µM (inactive) | > 100 µM (inactive) | > 100 µM | > 100 µM (inactive) | > 100 µM (inactive) | > 100 µM (inactive) | > 100 µM (inactive) | > 100 µM (inactive) | > 100 µM (inactive) | > 100 µM (inactive) | > 100 µM (inactive) | > 100 µM (inactive) | > 100 µM (inactive) | > 100 µM (inactive) | > 100 µM (inactive) |
| COc1ccc(CNC(=O)[C@@H](C)N(C)C(=O)[C@@H]2CCCN2C(=O)[C@H](C(C)C)N(C)C(=O)[C@@H](NC(=O)[C@H](C(C)C)N(Cc2ccccc2)Cc2ccccc2)C(C)C)cc1OC (Bn2Val-V[NMeV]P[dNMeA]-{NH(3,4-diMeO-benzyl)}) | 7.19 µM (inactive) | 11.7 µM (inactive) | 10.1 µM (inactive) | 1.36 µM (inactive) | 10.5 µM (inactive) | 8.97 µM (inactive) | 7.48 µM (inactive) | 7.18 µM | 6.41 µM (inactive) | 10.4 µM (inactive) | 8 µM (inactive) | > 100 µM (inactive) | 8.67 µM (inactive) | 14 µM (inactive) | 4.05 µM (inactive) | 2.23 µM (inactive) | 4.33 µM (inactive) | 3.19 µM (inactive) | 3.61 µM (inactive) | 7.01 µM (inactive) |
| Oc1ccc(-c2c3ccccc3c(-c3ccc(OCCBr)cc3)c3ccccc23)cc1 | 19.6 µM (inactive) | 34.5 µM (inactive) | 53.3 µM (inactive) | 24.3 µM (inactive) | 15.6 µM (inactive) | 21.9 µM (inactive) | 29.4 µM (inactive) | 30.7 µM | 56.1 µM (inactive) | 29.4 µM (inactive) | 24 µM (inactive) | 67.6 µM (inactive) | 14.7 µM (inactive) | > 100 µM (inactive) | > 100 µM (inactive) | 60.1 µM (inactive) | 14.4 µM (inactive) | 35 µM (inactive) | 27.4 µM (inactive) | 19.7 µM (inactive) |
| COc1cc(Nc2nc3ccccc3nc2C(C)C)cc(OC)c1OC | 68.4 µM (inactive) | > 100 µM (inactive) | > 100 µM (inactive) | > 100 µM (inactive) | > 100 µM (inactive) | > 100 µM (inactive) | > 100 µM (inactive) | 90.4 µM | > 100 µM (inactive) | > 100 µM (inactive) | > 100 µM (inactive) | > 100 µM (inactive) | > 100 µM (inactive) | > 100 µM (inactive) | > 100 µM (inactive) | > 100 µM (inactive) | > 100 µM (inactive) | 81.7 µM (inactive) | > 100 µM (inactive) | > 100 µM (inactive) |
| CC1(C)COC2=C(C1)C(=O)c1ccccc1C2=O | 0.452 µM (active) | 1.7 µM (inactive) | 1.69 µM (inactive) | 2.88 µM (inactive) | 1.54 µM (inactive) | 1.84 µM (inactive) | 1.97 µM (inactive) | 0.701 µM | 1.65 µM (inactive) | 1.76 µM (inactive) | 1.99 µM (inactive) | 1.04 µM (active) | 1.88 µM (inactive) | 1.64 µM (inactive) | 1.5 µM (inactive) | 2.37 µM (inactive) | 1.21 µM (inactive) | 1.85 µM (inactive) | 1.55 µM (inactive) | 1.09 µM (active) |
| CC1=C/C(=C(/c2ccc(O)c(C)c2)c2ccccc2C(=O)O)C=CC1=O | 31 µM (inactive) | 17.3 µM (inactive) | 19 µM (inactive) | 25.4 µM (inactive) | 20.2 µM (inactive) | 19 µM (inactive) | 17.7 µM (inactive) | 21.4 µM | 25.2 µM (inactive) | 19.3 µM (inactive) | 19 µM (inactive) | 18.8 µM (inactive) | 24.9 µM (inactive) | 18.1 µM (inactive) | 21.9 µM (inactive) | 21.8 µM (inactive) | 19.7 µM (inactive) | 21.5 µM (inactive) | 19.6 µM (inactive) | 17.2 µM (inactive) |
| N/C(=N\c1ccc(Cl)c(Cl)c1)c1ccccc1N | 19.2 µM (inactive) | 36.8 µM (inactive) | 63.8 µM (inactive) | 12.3 µM (inactive) | 24.3 µM (inactive) | 28.2 µM (inactive) | 31.3 µM (inactive) | 28.2 µM | 20.2 µM (inactive) | 33.6 µM (inactive) | 57.4 µM (inactive) | 24.2 µM (inactive) | 19 µM (inactive) | 51.9 µM (inactive) | 2.7 µM (inactive) | 27.7 µM (inactive) | 52.1 µM (inactive) | 11.4 µM (inactive) | 19.3 µM (inactive) | 54.5 µM (inactive) |
| C=CCCC1(CCP(=O)(c2ccccc2)c2ccccc2)OCCO1 | > 100 µM (inactive) | > 100 µM (inactive) | > 100 µM (inactive) | > 100 µM (inactive) | > 100 µM (inactive) | > 100 µM (inactive) | > 100 µM (inactive) | > 100 µM | > 100 µM (inactive) | > 100 µM (inactive) | > 100 µM (inactive) | > 100 µM (inactive) | > 100 µM (inactive) | > 100 µM (inactive) | > 100 µM (inactive) | > 100 µM (inactive) | > 100 µM (inactive) | 64.3 µM (inactive) | > 100 µM (inactive) | > 100 µM (inactive) |
| COc1ccc(OC)c(NCC(=O)Nn2cnc3ccc(S(=O)(=O)Nc4cc(OC)ccc4OC)cc3c2=O)c1 | > 100 µM (inactive) | > 100 µM (inactive) | > 100 µM (inactive) | > 100 µM (inactive) | 66.7 µM (inactive) | > 100 µM (inactive) | > 100 µM (inactive) | > 100 µM | > 100 µM (inactive) | 46 µM (inactive) | > 100 µM (inactive) | 75.7 µM (inactive) | > 100 µM (inactive) | > 100 µM (inactive) | 31.2 µM (inactive) | 35.5 µM (inactive) | > 100 µM (inactive) | 40 µM (inactive) | 37.5 µM (inactive) | > 100 µM (inactive) |
| c1ccc(C2=NN=C3C(c4ccccc4)=Nc4ccccc4N3C2)cc1 | 14.7 µM (inactive) | 5.08 µM (inactive) | 10.5 µM (inactive) | 26.6 µM (inactive) | 47.3 µM (inactive) | 11.9 µM (inactive) | 24.2 µM (inactive) | 11.6 µM | 9.48 µM (inactive) | 29 µM (inactive) | 27 µM (inactive) | 7.43 µM (inactive) | 26 µM (inactive) | 7.94 µM (inactive) | 3.87 µM (inactive) | 1.69 µM (inactive) | 20 µM (inactive) | 3.84 µM (inactive) | 21.5 µM (inactive) | 30.3 µM (inactive) |
